Results as given in patent publication US7285561B2, “Imidazo-substituted compounds as p38 kinase inhibitors” (Roche Palo Alto LLC, priority 2006, dated 2007).
pIC50: −log10 of the molar value. Counter-ions that a name gives are not always drawn.

Test system: not given
Assay: not given
Conditions: not given

Structure (SMILES) | melting point
O[C@H]1CC[C@H](Nc2ncc3c(n2)N2CCN=C2C(c2ccccc2Cl)=C3)CC1 [Compound 13] | 169.3 to 175.8 °C
CS(=O)(=O)N1CCC(Nc2ncc3cc(-c4ccccc4Cl)c4nccn4c3n2)CC1 (as salt: HCl) [Compound 3] | 188 to 194 °C
O[C@H]1CC[C@H](Nc2ncc3cc(-c4ccccc4Cl)c4nccn4c3n2)CC1 [Compound 1] | 116 to 119 °C
CS(=O)(=O)CCNc1ncc2cc(-c3ccccc3Cl)c3nccn3c2n1 (as salt: HCl) [Compound 9] | 172.2 to 176 °C
O=S1(=O)CCC(Nc2ncc3cc(-c4ccccc4Cl)c4nccn4c3n2)CC1 (as salt: HCl) [Compound 5] | 221.8 to 226.8 °C
Clc1ccccc1-c1cc2cnc(NC3CCOCC3)nc2n2ccnc12 (as salt: HCl) [Compound 2] | 211 to 214 °C

Further lines, results first:

melting point | Structure (SMILES)
210 to 212.5 °C | CC(C)Nc1ncc2cc(-c3ccccc3Cl)c3nccn3c2n1 (as salt: HCl) [Compound 7]
178 to 180 °C | Fc1ccc(CNc2ncc3cc(-c4ccccc4Cl)c4nccn4c3n2)cc1 (as salt: HCl) [Compound 8]
190.8 to 194.3 °C | CC(C)(CO)Nc1ncc2cc(-c3ccccc3Cl)c3nccn3c2n1 (as salt: HCl) [Compound 6]

Target: T1, p-38 MAP kinase (Homo sapiens, UniProt Q16539)
T1 construct: made in house; host or cells: E. coli (co-expressed with SEK-1 and MEKK)
T1 sequence (Q16539 whole entry): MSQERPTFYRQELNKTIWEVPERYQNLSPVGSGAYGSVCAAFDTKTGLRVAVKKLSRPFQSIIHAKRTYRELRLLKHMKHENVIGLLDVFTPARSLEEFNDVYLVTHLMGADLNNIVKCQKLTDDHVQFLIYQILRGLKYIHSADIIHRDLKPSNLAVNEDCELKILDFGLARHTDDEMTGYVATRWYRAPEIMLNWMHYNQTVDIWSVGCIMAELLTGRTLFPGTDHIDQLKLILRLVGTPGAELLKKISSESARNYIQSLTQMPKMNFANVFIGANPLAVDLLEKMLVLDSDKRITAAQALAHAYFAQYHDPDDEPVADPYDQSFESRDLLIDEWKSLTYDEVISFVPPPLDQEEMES
Assay: Inhibition of p-38 (MAP) kinase, in vitro assay (transfer of γ-phosphate from γ-33P-ATP to Myelin Basic Protein)
Assay type: biochemical
Conditions: phosphorylated recombinant p38 MAP kinase; substrate MBP and γ-33P-ATP; 30° C.; read-out: IC50, the concentration causing 50% inhibition of the p-38 enzyme
Experimental: The p-38 MAP kinase inhibitory activity of compounds of this invention in vitro was determined by measuring the transfer of the γ-phosphate from γ-^33P-ATP by p-38 kinase to Myelin Basic Protein (MBP), using the a minor modification of the method described in Ahn, N. G.; et al. J. of Biol. Chem. Vol. 266(7), 4220-4227, (1991)
The phosphorylated form of the recombinant p38 MAP kinase was expressed with SEK-1 and MEKK in E. Coli (see, Khokhlatchev, A. et al. J. of Biol. Chem. Vol. 272(17), 11057-11062, (1997) and then purified by affinity chromatography using a Nickel column.
The phosphorylated p38 MAP kinase was diluted in kinase buffer (20 mM 3-(N-morpholino)propanesulfonic acid, pH 7.2, 25 mM β-glycerol phosphate, 5 mM ethylene glycol-bis(beta-aminoethyl ether)-N,N,N′,N′-tetraacetic acid, 1 mM sodium vanadate, 1 mM dithiothreitol, 40 mM magnesium chloride). Test compound dissolved in DMSO or only DMSO (control) was added and the samples were incubated for 10 min. at 30° C. The kinase reaction was initiated by the addition of a substrate cocktail containing MBP and γ-^33P-ATP. After incubating for an additional 20 min. at 30° C., the reaction was terminated by adding 0.75% phosphoric acid. The phosphorylated MBP was then separated from the residual γ-^33P-ATP using a phosphocellulose membrane (Millipore, Bedford, Mass.) and quantitated using a scintillation counter (Packard, Meriden, Conn.).

Structure (SMILES) | pIC50
O[C@H]1CC[C@H](Nc2ncc3c(n2)N2CCN=C2C(c2ccccc2Cl)=C3)CC1 [Compound 13] | 5.94
O[C@H]1CC[C@H](Nc2ncc3cc(-c4ccccc4Cl)c4nccn4c3n2)CC1 [Compound 1] | 8.00
CS(=O)(=O)N1CCC(Nc2ncc3cc(-c4ccccc4Cl)c4nccn4c3n2)CC1 [Compound 3] | 8.57

The remaining lines, values ahead:

pIC50 | Structure (SMILES)
5.18 | O[C@H]1CC[C@H](Nc2ncc3c(n2)N2CCN=C2N(c2ccccc2Cl)C3)CC1 [Compound 12]
8.85 | CC(C)Nc1ncc2cc(-c3ccccc3Cl)c3nccn3c2n1 [Compound 7]
7.73 | CC(C)(CO)Nc1ncc2cc(-c3ccccc3Cl)c3nccn3c2n1 [Compound 6]
